According to patent US12589158B2 (priority 2022, dated 2026):
Like-named read-outs stand apart in the source and are kept apart here.

Tests used:
[1] = Pharmacokinetics in C57 mice; details: mouse, in vivo
Method: After subcutaneous or intravenous administration to C57 mice, plasma is collected and the drug concentration in plasma is determined to illustrate the in vivo pharmacokinetic properties of the compound according to the present invention. […] 20.0 μL of thawed plasma sample is taken. 20 μL of 50% aqueous methanol solution (containing 100 ng mL^−1 internal standard) and 60 μL of acetonitrile are added sequentially to precipitate protein. The mixture is vortexed for 5 minutes, and centrifuged at 3700 rpm for 8 minutes. 50.0 μL of the supernatant is taken, into which 50.0 μL of 0.5% aqueous formic acid solution is added. The mixture is vortexed for 5 minutes. 50 μL of the mixture solution is sampled and injected into the LC-MS/MS to determine the drug concentration in plasma.

SD male rats = format: in vivo
Method: (§1) 77 SD male rats (SPF grade) are selected and randomly divided into 10 groups based on body weight. Group 1 is the vehicle control group, including 5 animals. […] Group 5 to Group 7 are the groups administrated with the test substance 1; and Group 8 to Group 10 are the groups administrated with the test substance 2, each group including 8 animals, wherein 5 animals for primary test, and 3 animals for toxicokinetics test, and the administration dose is 1, 3 and 10 mg/kg respectively. Each of the above groups is continuously administered twice a week for 2 weeks (administrating at Day 1, Day 5, Day 8, Day 12 and Day 15).
(§2) During the experiment, the cage condition monitoring, detailed clinical observations, determination of the food consumption, determination of body weight, measurement of the blood biochemical and hematology indicator, investigation of the gross anatomy, weighing of the organ, studying on toxicokinetic are performed on all the groups of the animals.
(§3) Original data during each time period is tabulated. The average values and standard deviations and/or group change are calculated for each assay endpoint based on the group and sex. For each endpoint, the administrated group will be compared with the control group in the following aspect. A logarithmic conversion is performed to the endpoint data as desired prior to the start of the specific analyses.

[2] = format: in vivo; details: rat, in vivo, male SD rats
Method: as §1, §2, §3

[3] = Pharmacokinetics following single administration in SD rat; parameters: species or system SD rats; details: in vivo, sc, 50 nmol/kg
Method: The compound is administrated to male SD rats (230-268 g, n=3) at a dose of 50.0 nmol/kg (s.c.) or 25.0 nmol/kg (i.v.). […] 30.0 μL of thawed plasma sample is taken. 150 μL of acetonitrile solution (containing 5 ng mL^−1 Verapamil, 50 ng·mL^−1 Glibenclamide, 200 ng·mL^−1 Tolbutamide and 200 ng·mL^−1 Diclofenac) are added to precipitate protein. The mixture is vortexed for 5 minutes, and centrifuged at 3700 rpm for 8 minutes. 70.0 μL of the supernatant is taken, into which 70.0 μL of 0.5% aqueous formic acid solution is added. The mixture is vortexed for 5 minutes. 15 μL of the mixture solution is sampled and injected into the LC-MS/MS to determine the drug concentration in plasma. 20.0 μL of thawed plasma sample is taken. 60 μL of acetonitrile solution (containing 5 ng mL^−1 Verapamil, 50 ng·mL^−1 Glibenclamide, 200 ng·mL^−1 Tolbutamide and 200 ng·mL^−1 Diclofenac) are added to precipitate protein. […] The mixture is vortexed for 10 minutes. 10.0 μL of the mixture solution is sampled and injected into the LC-MS/MS to determine the drug concentration in plasma. 30.0 μL of thawed plasma sample is taken. 150 μL of acetonitrile solution (containing 5 ng mL^−1 Verapamil, 50 ng mL^−1 Glibenclamide, 200 ng·mL^−1 Tolbutamide and 200 ng·mL^−1 Diclofenac) are added to precipitate protein. The mixture is vortexed for 5 minutes, and centrifuged at 3700 rpm for 8 minutes. 70.0 μL of the supernatant is taken, into which 70.0 μL of 0.5% aqueous formic acid solution is added. The mixture is vortexed for 5 minutes. 10.0 μL of the mixture solution is sampled and injected into the LC-MS/MS to determine the drug concentration in plasma.

[4] = Pharmacokinetics in cynomolgus monkeys; details: cynomolgus monkey, in vivo, sc, 25 nmol/kg
Method: After subcutaneous or intravenous administration to cynomolgus monkeys, plasma is collected and the drug concentration in plasma is determined to illustrate the in vivo pharmacokinetic properties of the compound according to the present invention. The compound is dissolved in 1.4% PG in 8 mM Na2HPO4 Buffer (pH 7.39), and filtered through a filter membrane (PTFE, 0.45 μm) to obtain 25 and 12.5 nmol/mL solution of the compound respectively. The obtained solutions are administered to cynomolgus monkeys (4-8 kg) at a dose of 25 nmol/kg subcutaneously (s.c.) or 12.5 nmol/kg intravenously (i.v.). […] The blood samples are centrifuged at 2200 g for 10 minutes to obtain a plasma, which is stored at −90° C. to −60° C. for further analysis and assay.
70.0 μL of thawed plasma sample is taken. 70 μL of acetonitrile (containing 1 ng/ml of the internal standard) is added to precipitate protein. The mixture is vortexed for 1 minute, and centrifuged at 14000 rpm for 10 minutes. 60.0 μL of the supernatant is taken, into which 60.0 μL of 0.5% aqueous formic acid solution is added. The mixture is vortexed for 5 minutes. 10 μL of the mixture solution is sampled and injected into the LC-MS/MS to determine the drug concentration in plasma.
Based on the drug concentration in plasma of the compounds in the cynomolgus monkeys, the pharmacokinetic parameters are calculated by applying the software Winnolin 8.2 in a non-compartmental model, and the results are shown in Table 9 and Table 10 below.

Structure (SMILES)	MRT inf ([1]; iv) [h]	MRT last ([1]; iv) [h]	MRT inf ([1]; sc) [h]	MRT last ([1]; sc) [h]	Toxicokinetic: Cmax and AUC versus dose (SD male rats; male SD rats, 1, 3, 10 mg/kg)	Toxicokinetic: accumulation (SD male rats; male SD rats, continuously administered twice a week for 2 weeks)	Safety Window (based on dosage) (SD male rats; rat MTD for 2 weeks vs efficacy dose in db/db mice)	Safety Window (based on exposure AUClast) (SD male rats; rat, in vivo)	dose at which decrease of the body weight is observed after the first administration (SD male rats; rat, in vivo) [mg/kg]	MTD ([2]; MTD for 2 weeks, twice a week) [µmol/kg]	MTD ([2]; continuously administered twice a week for 2 weeks) [mg/kg]	MRT inf [3] [h]	MRT last [3] [h]	MRT inf [4] [h]	MRT last [4] [h]
CC[C@H](C)[C@H](NC(=O)C(C)(C)NC(=O)[C@H](Cc1ccc(O)cc1)NC(=O)[C@H](CC(=O)O)NC(=O)[C@H](CO)NC(=O)[C@@H](NC(=O)C(C)(Cc1ccccc1)NC(=O)[C@@H](NC(=O)CNC(=O)[C@H](CCC(=O)O)NC(=O)C(C)(C)NC(=O)[C@@H](N)Cc1ccc(O)cc1)[C@@H](C)O)[C@@H](C)O)C(=O)NC(C)(C)C(=O)N[C@@H](CC(C)C)C(=O)N[C@@H](CC(=O)O)C(=O)N[C@@H](CCCCN)C(=O)N[C@@H](CCC(N)=O)C(=O)N[C@@H](C)C(=O)N[C@@H](CCC(N)=O)C(=O)N[C@@H](C)C(=O)N[C@@H](CCC(=O)O)C(=O)N[C@@H](Cc1ccccc1)C(=O)N[C@H](C(=O)N[C@@H](CCCCNC(=O)COCCOCCNC(=O)COCCOCCNC(=O)CC[C@H](NC(=O)CCCCCCCCCCCCCCCCCCCCC(=O)O)C(=O)O)C(=O)N[C@@H](Cc1c[nH]c2ccccc12)C(=O)N[C@@H](CC(C)C)C(=O)N[C@@H](CC(C)C)C(=O)N[C@@H](CCCCN)C(=O)NCC(=O)NCC(=O)N1CCC[C@H]1C(=O)N[C@@H](CO)C(=O)N[C@@H](CO)C(=O)NCC(=O)N[C@@H](C)C(=O)N1CCC[C@H]1C(=O)N1CCC[C@H]1C(=O)N1CCC[C@H]1C(=O)N[C@@H](CO)C(=O)N[C@@H](CCCCN)C(N)=O)C(C)C (stereo partly drawn) [P014]	19.2	15.7	30.3	22.9	increase nearly proportionally to the dose	no substantial accumulation	1319	596	≥ 1	1.98	> 10	30 ± 1.01	26.2 ± 0.781	77.4 ± 13.5	74.2 ± 13.8
CC[C@H](C)[C@H](NC(=O)C(C)(C)NC(=O)[C@H](Cc1ccc(O)cc1)NC(=O)[C@H](CC(=O)O)NC(=O)[C@H](CO)NC(=O)[C@@H](NC(=O)C(C)(Cc1ccccc1)NC(=O)[C@@H](NC(=O)CNC(=O)[C@H](CCC(=O)O)NC(=O)C(C)(C)NC(=O)[C@@H](N)Cc1ccc(O)cc1)[C@@H](C)O)[C@@H](C)O)C(=O)NC(C)(C)C(=O)N[C@@H](CC(C)C)C(=O)N[C@@H](CC(=O)O)C(=O)N[C@@H](CCCCN)C(=O)N[C@@H](CCC(N)=O)C(=O)N[C@@H](C)C(=O)N[C@@H](CCC(N)=O)C(=O)N[C@@H](C)C(=O)N[C@@H](CCC(=O)O)C(=O)N[C@@H](Cc1ccccc1)C(=O)N[C@H](C(=O)N[C@@H](CCCCN)C(=O)N[C@@H](Cc1c[nH]c2ccccc12)C(=O)N[C@@H](CC(C)C)C(=O)N[C@@H](CC(C)C)C(=O)N[C@@H](CCCCNC(=O)COCCOCCNC(=O)COCCOCCNC(=O)CC[C@H](NC(=O)CCCCCCCCCCCCCCCCCCCCC(=O)O)C(=O)O)C(=O)NCC(=O)NCC(=O)N1CCC[C@H]1C(=O)N[C@@H](CO)C(=O)N[C@@H](CO)C(=O)NCC(=O)N[C@@H](C)C(=O)N1CCC[C@H]1C(=O)N1CCC[C@H]1C(=O)N1CCC[C@H]1C(=O)N[C@@H](CO)C(=O)N[C@@H](CCCCN)C(N)=O)C(C)C (stereo partly drawn) [P017]												36.9 ± 3.46	27.9 ± 2.99	77.8 ± 12.2	76.4 ± 12.7
CC[C@H](C)[C@H](NC(=O)C(C)(C)NC(=O)[C@H](Cc1ccc(O)cc1)NC(=O)[C@H](CC(=O)O)NC(=O)[C@H](CO)NC(=O)[C@@H](NC(=O)C(C)(Cc1ccccc1)NC(=O)[C@@H](NC(=O)CNC(=O)[C@H](CCC(=O)O)NC(=O)C(C)(C)NC(=O)[C@@H](N)Cc1ccc(O)cc1)[C@@H](C)O)[C@@H](C)O)C(=O)NC(C)(C)C(=O)N[C@@H](CC(C)C)C(=O)N[C@@H](CC(=O)O)C(=O)N[C@@H](CCCCN)C(=O)N[C@@H](CCC(N)=O)C(=O)N[C@@H](C)C(=O)N[C@@H](CCC(N)=O)C(=O)N[C@@H](C)C(=O)N[C@@H](CCC(=O)O)C(=O)N[C@@H](Cc1ccccc1)C(=O)N[C@H](C(=O)N[C@@H](CCCCN)C(=O)N[C@@H](Cc1c[nH]c2ccccc12)C(=O)N[C@@H](CC(C)C)C(=O)N[C@@H](CC(C)C)C(=O)N[C@@H](CCCCNC(=O)COCCOCCNC(=O)COCCOCCNC(=O)COCCOCCNC(=O)CC[C@H](NC(=O)CCCCCCCCCCCCCCCCCCCCC(=O)O)C(=O)O)C(=O)NCC(=O)NCC(=O)N1CCC[C@H]1C(=O)N[C@@H](CO)C(=O)N[C@@H](CO)C(=O)NCC(=O)N[C@@H](C)C(=O)N1CCC[C@H]1C(=O)N1CCC[C@H]1C(=O)N1CCC[C@H]1C(=O)N[C@@H](CO)C(=O)N[C@@H](CCCCN)C(N)=O)C(C)C (stereo partly drawn) [P020]	21.8	16.8	29.4	21.8								37.1 ± 0.636	29.5 ± 4.68	103 ± 13.1	97.5 ± 9.67
